Test [1] concerns the target T1, ABHD12 (Mus musculus, UniProt Q99LR1).
T1 construct: from tissue; host or cells: brain membrane proteome
T1 sequence (Q99LR1 1-398): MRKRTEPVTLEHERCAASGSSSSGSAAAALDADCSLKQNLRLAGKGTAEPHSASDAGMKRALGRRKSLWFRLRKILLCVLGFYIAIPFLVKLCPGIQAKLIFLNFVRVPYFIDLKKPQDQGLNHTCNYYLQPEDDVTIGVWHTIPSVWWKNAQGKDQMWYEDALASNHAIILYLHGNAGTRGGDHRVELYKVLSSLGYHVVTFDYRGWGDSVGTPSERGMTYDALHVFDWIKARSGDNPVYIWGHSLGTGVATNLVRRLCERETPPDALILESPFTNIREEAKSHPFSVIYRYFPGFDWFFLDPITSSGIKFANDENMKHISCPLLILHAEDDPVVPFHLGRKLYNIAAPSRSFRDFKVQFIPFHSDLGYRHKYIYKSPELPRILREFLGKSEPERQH
Kind of test: Gel-based competitive ABPP, JJH350 probe vs brain membrane proteome. Format: biochemical. As to conditions: for inhibition at 10 µM: 10 μM compound, read-out: % Inhibition @ 10 μM (ABPP gel_JJH350 probe vs brain mem); for IC50: read-out: IC50 (ABPP gel_JJH350 probe vs brain mem). As to the method: Gel-Based Competitive ABPP for In Vitro Inhibitor Treatment of Proteomes:
Gel-based ABPP assays were performed as previously reported (Bachovchin, D. A. et al. Superfamily-wide portrait of serine hydrolase inhibition achieved by library-versus-library screening. Proc. Natl. Acad. Sci. U. S. A. 2010, 107, 20941-20946). Cell or tissue proteomes (50 μL, 1 mg/mL) were treated with either FP-Rh (1 μM final concentration) or JJH350 (2 μM final concentration) for 45 min at 37° C. For FP-Rh labeled samples, the reactions were quenched by adding 20 μL of 4× SDS-PAGE loading buffer. The 30 μL of the quenched samples were loaded on gel for analysis. For (S)-1,3-dioxo-7-(4-phenoxybenzoyl)hexahydroimidazo[1,5-a]pyrazin-2(3H)-yl 4-(4-(prop-2-yn-1-yloxy)phenyl)piperazine-1-carboxylate (JJH350)-labeled samples, copper-catalyzed azide-alkyne cycloaddition (CuAAC) was used for visualizing the labeled proteins following the reported protocol. Briefly, rhodamine-PEG3-N3 (1 μL/reaction, 1.25 mM in DMSO), CuSO4 (1 μL/reaction, 50 mM in H2O), TBTA (3 μL/reaction, 1.7 mM in DMSO/t-BuOH [1:4, v/v]) and tris(2-carboxyethyi)phosphine (TCEP) (1 μL/reaction, 50 mM in H2O, freshly prepared) were premixed. 6 μL of this click reagent mixture was immediately added to each JJH350-labeled samples (50 μL, 1 mg/mL) and incubated for 1 h at room temperature. The reactions were quenched by adding 20 μL of 4× SDS-PAGE loading buffer. The 40 μL of the quenched samples were loaded on a gel for analysis.
After separation by SDS-PAGE (10% acrylamide), samples were visualized by in-gel fluorescence scanning using the ChemiDoc MP system (Bio-Rad). Band intensities were quantified using the Image Lab (5.2.1) software (Bio-Rad).

Test [2] addresses T2, ABHD12 (Homo sapiens, UniProt Q8N2K0).
T2 construct: expressed in transfected cells; host or cells: HEK293T
T2 sequence (Q8N2K0 1-398): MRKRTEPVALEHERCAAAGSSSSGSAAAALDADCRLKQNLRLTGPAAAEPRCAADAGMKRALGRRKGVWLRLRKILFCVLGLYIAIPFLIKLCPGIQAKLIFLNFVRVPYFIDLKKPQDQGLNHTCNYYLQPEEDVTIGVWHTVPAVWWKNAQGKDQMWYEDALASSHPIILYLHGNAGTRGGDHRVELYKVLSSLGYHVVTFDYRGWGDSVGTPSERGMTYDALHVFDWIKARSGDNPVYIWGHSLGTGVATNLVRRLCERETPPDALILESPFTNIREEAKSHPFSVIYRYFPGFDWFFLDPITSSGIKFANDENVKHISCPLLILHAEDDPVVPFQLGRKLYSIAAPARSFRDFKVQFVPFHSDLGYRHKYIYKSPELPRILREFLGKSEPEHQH
Nature of the test: Lyso-PS hydrolysis assay (substrate-based), ABHD12-overexpressing HEK293T membrane lysate. The format is biochemical. As to conditions: 17:1 lyso-PS substrate; ABHD12-overexpressed HEK lysate; read-out: IC50 (Substrate-based assay_ABHD12-overexpressed HEK lysate). The method, then: Lyso-PS Hydrolysis Assay:
The lyso-PS lipase activity of ABHD12 was determined as previously described (Blankman, J. L., Long, J. Z., Trauger, S. A., Siuzdak, G. & Cravatt, B. F. ABHD12 controls brain lysophosphatidylserine pathways that are deregulated in a murine model of the neurodegenerative disease PHARC. Proc. Natl. Acad. Sci. U. S. A. 110, 1500-1505, doi:10.1073/pnas.1217121110 (2013)) with some minor modifications. The proteome concentrations were adjusted to 0.25 mg/mL (ABHD12-overexpressing HEK293T membrane) or 0.5 mg/mL (mouse brain membrane) in Dulbecco's phosphate-buffered saline (DPBS) (80 μL/reaction). 20 μL of 500 μM 17:1 lyso-PS in DPBS was added to each reaction (100 μM final concentration) and incubated at 37° C. After 30 min, the reaction was quenched with 400 μL of 2:1 CHCl3/MeOH (v/v) with 1 nmol 15:0 FFA as an internal standard. The mixture was vortexed and centrifuged at 1,400× g to separate the aqueous and organic phase. The organic phase was analyzed by LC-MS (1200 LC/MSD, Agilent Technologies). The separation of the analyte was achieved using a 50 mm×4.6 mm 5 μm Gemini C18 column (Phenomenex) coupled to a guard column (Gemini: C18: 4×3 mm). The LC solvents were as follows: buffer A, […] (95:5, v/v) with 0.1% NH4OH (v/v); and buffer B, iPrOH:MeOH:H2O (60:3 5:5, v/v/v) with 0.1% NH4OH (v/v). The LC method consisted of 0.1 mL/min 20% buffer B for 1.0 min, 0.4 ml/min isocratic mode of 100% buffer B over 7 min and equilibration with 0.5 mL/min 100% buffer A for 3 min. The MS analyses were performed using an electrospray ionization source (ESI) in negative ion mode to measure product formation. MS data were acquired in selected ion monitoring mode at m/z 267.20 for 17:1 FFA and m/z 241.20 for 15:0 FFA.

For orientation: inhibition means the relative decrease from the control value, in per cent. The term IC50 denotes the concentration at which inhibition is half-maximal. As for `FC(F)(F)c1cnc(N2CCC(NC(=S)Nc3cccnc3)CC2)c(Cl)c1` [Example 1, 1-(1-(3-Chloro-5-(trifluoromethyl)pyridin-2-yl)piperidin-4-yl)-3-(pyridin-3-yl)thiourea], in test [1], the inhibition at 10 µM was at least 75%. Besides, the IC50 in test [1] and in test [2] was 1 to 25 µM throughout.
As for `FC(F)(F)Oc1ccc(Oc2ccnc(N3CCC(NC(=S)Nc4cccnc4)CC3)c2)cc1` [Example 2, 1-(Pyridin-3-yl)-3-(1-(4-(4-(trifluoromethoxy)phenoxy)pyridin-2-yl)piperidin-4-yl)thiourea], in test [1], the inhibition at 10 µM is at least 75% and the half-inhibitory concentration (IC50) lay in the range of 0.1 to 1 µM. Further, the IC50 in test [2] lay within 0.1 to 1 µM.
In the case of `FC(F)(F)Oc1ccc(Oc2ccnc(N3CCC(NC(=S)Nc4cccnc4)CC3)c2Cl)cc1` [Example 3, 1-(1-(3-chloro-4-(4-(trifluoromethoxy)phenoxy)pyridin-2-yl)piperidin-4-yl)-3-(pyridin-3-yl)thiourea], the inhibition at 10 µM in test [1] is at least 75%. In addition, the IC50 in test [1] and in test [2] was at most 0.1 µM in each case.
As to `FC(F)(F)Oc1ccc(Oc2ccnc(N3CCC(NC(=S)Nc4cccnc4)CC3)c2Cl)c(Cl)c1` [Example 4, 1-(1-(3-Chloro-4-(2-chloro-4-(trifluoromethoxy)phenoxy)pyridin-2-yl)piperidin-4-yl)-3-(pyridin-3-yl)thiourea], the IC50 in test [1] and in test [2] was at most 0.1 µM each time.
Take `C#Cc1ccc(Oc2ccnc(N3CCC(NC(=S)Nc4cccnc4)CC3)c2Cl)c(Cl)c1` [Example 5, 1-(1-(3-Chloro-4-(2-chloro-4-ethynylphenoxy)pyridin-2-yl)piperidin-4-yl)-3-(pyridin-3-yl)thiourea]: the IC50 in test [2] was at most 0.1 µM.
On to `Fc1ccc(Oc2ccnc(N3CCC(NC(=S)Nc4cccnc4)CC3)c2Cl)cc1OC(F)(F)F` [Example 68, 1-(1-(3-Chloro-4-(4-fluoro-3-(trifluoromethoxy)phenoxy)pyridin-2-yl)piperidin-4-yl)-3-(pyridin-3-yl)thiourea], for which the half-maximal inhibitory concentration (IC50) in test [1] is at most 0.1 µM.
On to `Cc1cc(F)ccc1Oc1ccnc(N2CCC(NC(=S)Nc3cccnc3)CC2)c1Cl` [Example 69, 1-(1-(3-Chloro-4-(4-fluoro-2-methylphenoxy)pyridin-2-yl)piperidin-4-yl)-3-(pyridin-3-yl)thiourea], for which, in test [1], the concentration for half-maximal inhibition (IC50) was in the range of 0.1 to 1 µM.
Regarding `Cc1cc(Oc2ccnc(N3CCC(NC(=S)Nc4cccnc4)CC3)c2Cl)ccc1F` [Example 70, 1-(1-(3-Chloro-4-(4-fluoro-3-methylphenoxy)pyridin-2-yl)piperidin-4-yl)-3-(pyridin-3-yl)thiourea], in test [1], the half-inhibitory concentration (IC50) lay within 0.1 to 1 µM.
On to `Cc1cc(OC(F)(F)F)ccc1Oc1ccnc(N2CCC(NC(=S)Nc3cccnc3)CC2)c1Cl` [Example 73, 1-(1-(3-Chloro-4-(2-methyl-4-(trifluoromethoxy)phenoxy)pyridin-2-yl)piperidin-4-yl)-3-(pyridin-3-yl)thiourea], for which the IC50 in test [1] was at most 0.1 µM.
Turning to `Cc1ccc(Oc2ccnc(N3CCC(NC(=S)Nc4cccnc4)CC3)c2)cc1` [Example 75, 1-(Pyridin-3-yl)-3-(1-(4-(p-tolyloxy)pyridin-2-yl)piperidin-4-yl)thiourea], in test [1], the half-maximal inhibitory concentration (IC50) was in the range of 1 to 25 µM.
For `CC(=O)c1ccnc(N2CCC(NC(=S)Nc3cccnc3)CC2)c1` [Example 76, 1-(1-(4-Acetylpyridin-2-yl)piperidin-4-yl)-3-(pyridin-3-yl)thiourea], in test [1], the inhibition at 10 µM lay within 25 to 50% and the IC50 lay within 1 to 25 µM.
`O=C(Nc1cccnc1)NC1CCN(c2ncc(C(F)(F)F)cc2Cl)CC1` [Example 77, 1-(1-(3-Chloro-5-(trifluoromethyl)pyridin-2-yl)piperidin-4-yl)-3-(pyridin-3-yl)urea]: in test [1], the inhibition at 10 µM was 25 to 50%.
For the molecule `FC(F)(F)c1cnc(N2CCC(NC(=S)Nc3cccnc3)CC2)nc1` [Example 78, 1-(Pyridin-3-yl)-3-(1-(5-(trifluoromethyl)pyrimidin-2-yl)piperidin-4-yl)thiourea], the inhibition at 10 µM in test [1] fell in the range of 50 to 75%.
Still for that read-out and setting: the figure for `FC(F)(F)c1ccc(N2CCC(NC(=S)Nc3cccnc3)CC2)nn1` [Example 79, 1-(Pyridin-3-yl)-3-(1-(6-(trifluoromethyl)pyridazin-3-yl)piperidin-4-yl)thiourea] is 0 to 25%.
For the molecule `FC(F)(F)c1cnc(N2CCCC(NC(=S)Nc3cccnc3)CC2)c(Cl)c1` (stereo not shown) [Example 80, 1-(1-(3-Chloro-5-(trifluoromethyl)pyridin-2-yl)azepan-4-yl)-3-(pyridin-3-yl)thiourea], in test [1], the inhibition at 10 µM was in the range of 50 to 75%.
As to `FC(F)(F)c1cnc(NCCCCCNC(=S)Nc2cccnc2)c(Cl)c1` [Example 81, 1-(5-((3-Chloro-5-(trifluoromethyl)pyridin-2-yl)amino)pentyl)-3-(pyridin-3-yl)thiourea], the inhibition at 10 µM in test [1] was at least 75%.
Still for that read-out and setting: under `CN(C(=S)Nc1cccnc1)C1CCN(c2ncc(C(F)(F)F)cc2Cl)CC1` [Example 82, 1-(1-(3-Chloro-5-(trifluoromethyl)pyridin-2-yl)piperidin-4-yl)-1-methyl-3-(pyridin-3-yl)thiourea] stands 50 to 75%; under `FC(F)(F)c1cnc(NCCCCNC(=S)Nc2cccnc2)c(Cl)c1` [Example 83, 1-(4-((3-Chloro-5-(trifluoromethyl)pyridin-2-yl)amino)butyl)-3-(pyridin-3-yl)thiourea], 25 to 50%; under `FC(F)(F)c1cnc(NCCCCCCNC(=S)Nc2cccnc2)c(Cl)c1` [Example 84, 1-(6-((3-Chloro-5-(trifluoromethyl)pyridin-2-yl)amino)hexyl)-3-(pyridin-3-yl)thiourea], 50 to 75%.
As for `FC(F)(F)c1cnc(N2[C@@H]3CC[C@H]2CC(NC(=S)Nc2cccnc2)C3)c(Cl)c1` (stereo partly drawn) [Example 85, 1-((1R,5S)-8-(3-Chloro-5-(trifluoromethyl)pyridin-2-yl)-8-azabicyclo[3.2.1]octan-3-yl)-3-(pyridin-3-yl)thiourea], the inhibition at 10 µM in test [1] fell in the range of 50 to 75%.

The values above are taken from patent publication US11897865B2, “ABHD12 inhibitors and methods of making and using same” (THE SCRIPPS RESEARCH INSTITUTE, priority 2018, dated 2024).
